The text below walks through data of ChEMBL document CHEMBL5244223, “l,8-Naphthalimide based DNA intercalators and anticancer agents. A systematic review from 2007 to 2017” (Eur J Med Chem, 2018).

Values after ≈ are worked out from the molar mass of the structure shown.

In one data set the test system is A549. Briefly: Cytotoxicity against human A549 cells assessed as inhibition of cell growth incubated for 48 hrs by MTT assay. The data set is classed as functional, cell-based. As to conditions: A549, 48 h.
The test system of data set [1] is HeLa. Briefly: Cytotoxicity against human HeLa cells assessed as inhibition of cell growth incubated for 48 hrs by MTT assay. The data set is classed as functional, cell-based. In general terms: Tetrazolium assays rely on reduction of a dye to a coloured formazan, in cell work by metabolically active cells.
The next data set has as its system K562. Briefly: Cytotoxicity against human K562 cells assessed as inhibition of cell growth incubated for 48 hrs by MTT assay. It counts as functional, cell-based. As to conditions: K562, 48 h.
A further data set concerns Escherichia coli. Kind of data set: Antibacterial activity against Escherichia coli MTCC 443 assessed as inhibition of bacterial growth by agar well diffusion assay. The data set is classed as functional.
In another data set the test system is Calf thymus DNA. Kind of data set: Binding affinity to calf thymus DNA assessed as DNA intercalation by measuring change in melting temperature by thermal denaturation assay. It counts as nucleic-acid assay. The conditions noted are these: Bos taurus.
A further data set relates to Pseudomonas aeruginosa. Kind of data set: Antibacterial activity against Pseudomonas aeruginosa MTCC 741 assessed as inhibition of bacterial growth by agar well diffusion assay. The data set is classed as functional.
A further data set has as its system Staphylococcus aureus. Kind of data set: Antibacterial activity against Staphylococcus aureus MTCC 96 assessed as inhibition of bacterial growth by agar well diffusion assay. It counts as functional.
Data set [2] concerns Staphylococcus epidermidis. Briefly: Antibacterial activity against Staphylococcus epidermidis MTCC 435 assessed as inhibition of bacterial growth by agar well diffusion assay. It counts as functional. (A growth-free zone around the sample is the usual read-out of agar diffusion tests.)
In a further data set the test system is CCRF-CEM. Briefly: Antiproliferative activity against human CEM cells assessed as inhibition of cell proliferation incubated for 48 hrs by coulter counter assay. It counts as functional, cell-based.
For data set [3], the system named is HeLa. Kind of data set: Antiproliferative activity against human HeLa cells assessed as inhibition of cell proliferation incubated for 48 hrs by coulter counter assay. The data set is classed as functional, cell-based.
The nature of data set [4]: Antiproliferative activity against human HMEC-1 cells assessed as inhibition of cell proliferation incubated for 48 hrs by coulter counter assay. It counts as toxicity, cell-based.
The next data set deals with L1210. Briefly: Antiproliferative activity against mouse L1210 cells assessed as inhibition of cell proliferation incubated for 48 hrs by coulter counter assay. The conditions noted are these: L1210, 48 h. It counts as functional, cell-based.

The IC50 is the point on the concentration scale where inhibition reaches its midpoint. As to `CN(C)CCN1C(=O)c2cccc3cc(NC(=O)CCN)cc(c23)C1=O`, the figures for the IC50 with A549, in the data set with HeLa [1] and in the data set with K562 were 4.7 µM, 21.5 µM and 8.5 µM, respectively.
Usually MIC stands for the smallest concentration in the dilution series that meets the test's criterion for growth inhibition. A word on the ΔTm: it is the change in melting temperature against a reference sample. For `O=C1c2ccc3c4c(ccc(c24)C(=O)N1c1nc(-c2cc4cc(Br)cc(Br)c4oc2=O)cs1)C(=O)N(c1nc(-c2cc4cc(Br)cc(Br)c4oc2=O)cs1)C3=O`, the MIC (with Escherichia coli; in the data set on Pseudomonas aeruginosa; in the data set on Staphylococcus aureus; in data set [2]) was 18.8 µg/mL (≈ 18.1 µM) throughout. Moreover, the ΔTm in the data set on Calf thymus DNA amounted to 0.1 °C.
With `CCOP(=O)(CCn1cc(CN2C(=O)c3cccc4cc([N+](=O)[O-])cc(c34)C2=O)nn1)OCC`, the IC50 in the data set with CCRF-CEM, in the data set on HeLa [3] and in the data set on L1210 was above 250 µM in each case. For the same compound, the IC50 at 48 h in data set [4] was above 250 µM.
Take `CCOP(=O)(Cn1cc(CN2C(=O)c3cccc4cccc(c34)C2=O)nn1)OCC`: the IC50 in the data set on CCRF-CEM, in the data set with HeLa [3] and with L1210 was above 250 µM throughout. Besides, in [4], the IC50 at 48 h was above 250 µM.
As to `COc1cccc2cc(-c3csc(N4C(=O)c5cccc6cccc(c56)C4=O)n3)c(=O)oc12`, the MIC (with Escherichia coli; in the data set with Pseudomonas aeruginosa; in the data set with Staphylococcus aureus; in data set [2]) was 18.8 µg/mL (≈ 41.3 µM) throughout. Further, in the data set on Calf thymus DNA, the ΔTm worked out at 0.1 °C.
With `CN(C)CCN1C(=O)c2cccc3cc(NC(=O)CCCCCNC(=O)C(Cl)Cl)cc(c23)C1=O`, the half-inhibitory concentration (IC50) in the data set with A549 worked out at 4.7 µM; in the data set on HeLa [1], 21.5 µM; in the data set with K562 it was 8.5 µM.
Take `CCOP(=O)(CCOCn1cc(CN2C(=O)c3cccc4cccc(c34)C2=O)nn1)OCC`: the IC50 with CCRF-CEM, in the data set on HeLa [3] and in the data set with L1210 was above 250 µM each time. Further, the IC50 at 48 h in data set [4] is above 250 µM.
Regarding `O=C(O)c1cn(C2CC2)c2cc(N3CCNCC3)c(F)cc2c1=O` [CIPROFLOXACIN], the MIC (with Escherichia coli; in the data set on Pseudomonas aeruginosa; in the data set with Staphylococcus aureus; in data set [2]) was 18.8 µg/mL (≈ 56.6 µM) in each case.
Consider `CCOP(=O)(CCCn1cc(CN2C(=O)c3cccc4cc([N+](=O)[O-])cc(c34)C2=O)nn1)OCC`, for which the concentration for half-maximal inhibition (IC50) with CCRF-CEM, with HeLa [3] and in the data set on L1210 was above 250 µM throughout. Moreover, in [4], the IC50 at 48 h is above 250 µM.
As for `CCOP(=O)(CC(O)Cn1cc(CN2C(=O)c3cccc4cccc(c34)C2=O)nn1)OCC` (configuration not stated), the IC50 in the data set on CCRF-CEM, in the data set with HeLa [3] and in the data set on L1210 was above 250 µM each time. Further, the half-maximal inhibitory concentration (IC50) at 48 h in data set [4] is above 250 µM.
Regarding `CCOP(=O)(CCn1cc(CN2C(=O)c3cccc4cccc(c34)C2=O)nn1)OCC`, the IC50 in the data set on CCRF-CEM, in the data set on HeLa [3] and in the data set with L1210 was above 250 µM each time. Moreover, the IC50 at 48 h in data set [4] is above 250 µM.
In the case of `CCOP(=O)(CCOCCn1cc(CN2C(=O)c3cccc4c(Br)ccc(c34)C2=O)nn1)OCC`, the concentration for half-maximal inhibition (IC50) in the data set with CCRF-CEM, in the data set on HeLa [3] and in the data set on L1210 was above 250 µM throughout. Also, in [4], the IC50 at 48 h was above 250 µM.
For `CCOP(=O)(CC(O)Cn1cc(CN2C(=O)c3cccc4c(Br)ccc(c34)C2=O)nn1)OCC` (configuration not stated), the IC50 with CCRF-CEM, with HeLa [3] and in the data set with L1210 was above 250 µM each time. Moreover, in data set [4], the IC50 at 48 h is above 250 µM.
As for `CCOP(=O)(CCOCCn1cc(CN2C(=O)c3cccc4cccc(c34)C2=O)nn1)OCC`, the IC50 in the data set with CCRF-CEM, in the data set on HeLa [3] and with L1210 was above 250 µM each time. Also, the IC50 at 48 h in [4] is above 250 µM.
`CN(C)CCN1C(=O)c2cccc3cc(NC(=O)CCCCCN)cc(c23)C1=O`: the figures for the IC50 in the data set on A549, with HeLa [1] and in the data set with K562 were 4.7 µM, 21.5 µM and 8.5 µM, respectively.
With `CCOP(=O)(CCCn1cc(CN2C(=O)c3cccc4c(Br)ccc(c34)C2=O)nn1)OCC`, the IC50 with CCRF-CEM, in the data set with HeLa [3] and in the data set with L1210 was above 250 µM throughout. In addition, the half-maximal inhibitory concentration (IC50) at 48 h in data set [4] was above 250 µM.
As to `O=C1c2ccc3c4c(ccc(c24)C(=O)N1c1nc(-c2cc4cc(Br)ccc4oc2=O)cs1)C(=O)N(c1nc(-c2cc4cc(Br)ccc4oc2=O)cs1)C3=O`, the MIC (in the data set with Escherichia coli; in the data set on Pseudomonas aeruginosa; in the data set with Staphylococcus aureus; in [2]) was 18.8 µg/mL (≈ 21.3 µM) throughout. In addition, the ΔTm in the data set on Calf thymus DNA was found to be 0.1 °C.
As to `O=C1c2cccc3cccc(c23)C(=O)N1c1nc(-c2cc3cc(Br)ccc3oc2=O)cs1`, the MIC (in the data set with Escherichia coli; in the data set on Pseudomonas aeruginosa; in the data set on Staphylococcus aureus; in data set [2]) was 18.8 µg/mL (≈ 37.3 µM) in each case. Besides, the ΔTm in the data set on Calf thymus DNA is 0.1 °C.
Turning to `CCOP(=O)(CCOCCn1cc(CN2C(=O)c3cccc4cc([N+](=O)[O-])cc(c34)C2=O)nn1)OCC`, the IC50 in the data set on CCRF-CEM, with HeLa [3] and with L1210 was above 250 µM throughout. In [4], the IC50 at 48 h was above 250 µM.
